Assay results: patent publication US11890279B2, “Quinolines that modulate SERCA and their use for treating disease” (Neurodon Corporation, priority 2020, dated 2024)

Experiments:
N2a cells = experiment: Protection against hydrogen peroxide-induced cell death, N2a; assay type: cell-based, mouse; settings: compound 40 μM; hydrogen peroxide 200 μM
Method in brief: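 N2a cells were pretreated 2 h with compound at 40 μM, then exposed to 200 μM H2O2 for 40 min. AlamarBlue (10% v/v) was added and fluorescence read 2 h later. Viability expressed as % RFU of control, reported as % cell rescue.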

[1] = target: human serotonin (5-hydroxytryptamine) 5-HT2B (Homo sapiens (Human), UniProt P41595); experiment: Selectivity panel of 164 targets; settings: 10 μM in duplicate; one of only 4 hits among 164 targets
Sequence of human serotonin (5-hydroxytryptamine) 5-HT2B (P41595 whole entry): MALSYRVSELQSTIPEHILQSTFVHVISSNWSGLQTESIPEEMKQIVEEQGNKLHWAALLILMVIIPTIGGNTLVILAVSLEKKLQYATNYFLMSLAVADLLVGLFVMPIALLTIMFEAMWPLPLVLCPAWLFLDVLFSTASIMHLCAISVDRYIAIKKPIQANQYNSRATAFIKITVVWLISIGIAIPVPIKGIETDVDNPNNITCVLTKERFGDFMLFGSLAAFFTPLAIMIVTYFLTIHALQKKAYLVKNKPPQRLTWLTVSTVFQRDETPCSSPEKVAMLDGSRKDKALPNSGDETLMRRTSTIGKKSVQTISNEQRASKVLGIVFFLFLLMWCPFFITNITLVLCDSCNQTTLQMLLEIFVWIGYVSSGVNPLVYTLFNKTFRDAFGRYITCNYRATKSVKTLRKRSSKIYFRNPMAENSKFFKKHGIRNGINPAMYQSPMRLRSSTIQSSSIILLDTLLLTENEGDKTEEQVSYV
Excerpt: The methods used here for each target were adapted from the scientific literature to maximize reliability and reproducibility. Reference standards were run as an integral part of each essay to ensure the validity of the results obtained.

[2] = test system: CA1 pyramidal neurons of PS1/APP mice; experiment: Ca2+ imaging in brain slices of treated PS1/APP mice; assay type: in vivo, mouse; settings: 10 mg/kg IP, 4 weeks, caffeine 10 mM, 60 sec
Excerpt: Mouse Model: PS1/APP mice (PS1M146V and APPSWE) (Howlett et al., Brain Res. 2004, 1017, 130-136) were used. Age-matched NTg controls were on the same background strain (C57bl6/J9).
Brain Slice Preparation: Mice were deeply anesthetized with halothane and rapidly decapitated. The brains were extracted rapidly and 300 or 400 μm-thick transverse hippocampal slices were cut with a vibrating microtome into ice-cold oxygenated artificial cerebrospinal fluid (aCSF) with the following composition (in mM): 125 NaCl, 2.5 KCl, 1.25 KH2PO4, 1.2 MgSO4, 2 CaCl2, 10 dextrose, and 25 NaHCO3.
Ca^2+ Imaging: Ca^2+ imaging within individual neurons was performed in brain slice preparations using a custom-made video-rate multiphoton-imaging system based on an upright Olympus BX51 microscope frame. […] Emitted fluorescence light was detected by a wide-field photomultiplier (Electron Tubes) to derive a video signal that was captured and analyzed by Video Savant 5.0 software (IO Industries). […] For clarity, results are expressed as inverse ratios so that increases in [Ca^2+] correspond to increasing ratios. The % change is calculated as [(F/ΔF)−1]×100, where F is the average resting fluorescence at baseline and ΔF is the decrease of fluorescence reflecting Ca release. Differences between drug- and saline-treated groups were assessed using two-way ANOVA and Scheffe post hoc analysis for significance (p<0.05). […]

[3] = test system: APPSWE/PSEN1dE9 double-transgenic mice; experiment: Alzheimer's model behavioral test, Morris water maze; assay type: in vivo, mouse; settings: 10 mg/kg IP daily for 4 weeks; vs vehicle
Procedure: Briefly, the mice were shown a visible platform that was subsequently removed. The distance that the mice swim searching for the platform was measured, with a shorter distance indicating increased memory. […] Motor coordination, strength, and balance was assessed using the Rotarod test (FIG. 6, B). Mice were first trained until they could remain on a rotarod revolving at 16 rpm for three consecutive 120 sec trials. The next day the mice were placed back on the rotarod for a single trial at 18 rpm (maximum duration 120 sec). The duration a mouse could remain on the rotarod was recorded, and the mouse was then returned to its home cage. The speed of the rotarod was then increased to 21 rpm, and all mice were given another test trial. This process was repeated for rotarod speeds of 24, 27, 30, 33, and 36 rpm. All the speeds were repeated twice for the mice in different groups, interval 30 min every time. The Mean values of two tests were analyzed. The mice maintained longer time on the rotarod with more ability of motor coordination, strength and balance.

[4] = Pharmacokinetics in Sprague Dawley rats; assay type: in vivo, rat; settings: Sprague Dawley rats
Procedure: Blood was drawn at 5 min, 15 min, 30 min, 1 hr, 2 hrs, 4 hrs, 6 hrs, and 8 hrs into EDTA containing tubes and plasma was harvested by centrifugation. Plasma (25 μL) was treated with acetonitrile (125 μL) containing an internal standard. The sample was then centrifuged for 5 min at 4,000 rpm in a tabletop centrifuge and the filtrate was collected. The filtrate was injected onto a Thermo Betasil C18 HPLC column 5 (50×2.1 mm). Mobile Phase A was water with 0.1% formic acid. Mobile Phase B was acetonitrile with 0.1% formic acid. […] An API Sciex 4000 equipped with a turbo ion spray source was used for all analytical measurements. A positive ion MRM method was developed. Peak areas of the product ion were measured against the peak areas of the internal standard. Data was fit using WinNonLin (Pharsight Corporation, Mountain View, CA).

## Cc1ccc2cccc(NC(=O)c3ccc(OC(C)C)cc3)c2n1 [Compound A12, 4-Isopropoxy-N-(2-methylquinolin-8-yl)benzamide]
N2a cells
  N2a Cells (H2O2-induced) cell rescue: B (B represents a value between 10% to 50% cell rescue)
[1]
  response against human 5-HT2B: significant responses
[2]
  ER Ca^2+ signaling (RyR-Ca2+ response to caffeine): restores ER Ca^2+ signaling
[3]
  total distance in hidden platform test (Morris water maze): a decrease in total distance
[4]; listed under oral pharmacokinetic properties
  CLobs: 251 mL/min/kg
[4]; rat, plasma, oral, 2 mg/kg P.O.
  Cmax: 260 nM
[4]; rat, plasma, oral, 2 mg/kg P.O., read-out: AUClast
  AUC(0-t): 0.41 µM·h

## Cc1ccc2cccc(NC(=O)c3ccc(N(C)C)cc3)c2n1 [Compound C18, 4-N,N-Dimethylamino-N-(2-methylquinolin-8-yl)benzamide]
N2a cells
  N2a Cells (H2O2-induced) cell rescue: B (B represents a value between 10% to 50% cell rescue)
